Experimental data reported in US11000033B2, “Ketone or oxime compound, and herbicide” (NISSAN CHEMICAL CORPORATION, priority 2014, dated 2021).

How the values were obtained:
Type in all cases: in vivo
[1] = tested on: Lolium multiflorum Lam.; assay: Test Example 4: herbicidal effect by soil treatment (symbol K); settings: application herbicide amount 320 g/ha
In short: (§1)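 Seeds were sown in sterilized diluvial soil, covered with about 1.5 cm of soil, and the soil surface was sprayed with a water-diluted emulsion of the compound at a predetermined rate. Plants grew in a greenhouse at 25° C. to 30° C.; effects were scored visually 3 weeks after application.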

[2] = tested on: rapeseed; assay: Test Example 5: effect on crop by foliage application, plastic box (symbol g); settings: 320 g/ha, 3 weeks after application
In short: (§2)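 Diluvial soil, sterilized and boxed (21 × 13 × 7 cm), received spot-sown seed covered by about 1.5 cm soil; plants were then greenhouse-grown at 25–30° C.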

[3] = tested on: Alopecurus myosuroides; assay: Test Example 5: herbicidal effect by foliage application, plastic box (symbol J); settings: 320 g/ha, 3 weeks after application
In short: (§3)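 Leaf-applied emulsion, water-diluted to a preset herbicide dose, on two-week-old seedlings raised in a 25° C. to 30° C. greenhouse; injury rated at 3 weeks using earlier criteria.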

[4] = tested on: Stellaria media; assay: Test Example 5: herbicidal effect by foliage application, plastic box (symbol P); settings: 320 g/ha, 3 weeks after application
In short: as §3

[5] = tested on: Leptochloa chinensis; assay: Test Example 3: herbicidal effect by foliage application, Wagner pot (symbol D); settings: application herbicide amount 320 g/ha
In short: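 Rating at 3 weeks post-spray, by defined criteria. Treatment: emulsion diluted with water to a predetermined amount, applied evenly to foliage of 14-day-old plants raised in alluvial soil flooded 0.1–0.5 cm deep at 25–30 °C, rice co-sown.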

[6] = tested on: wheat; assay: Test Example 5: effect on crop by foliage application, plastic box (symbol e); settings: 320 g/ha, 3 weeks after application
In short: as §2

[7] = tested on: Echinochloa crus-galli var. crus-galli; assay: Test Example 5: herbicidal effect by foliage application, plastic box (symbol H); settings: 320 g/ha, 3 weeks after application
In short: as §3

[8] = tested on: Monochoria vaginalis; assay: Test Example 1: herbicidal activity, application before weed generation in submerged conditions (symbol C); settings: application herbicide amount 320 g/ha
In short: (§4)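 Mixed weed seeds sown in alluvial soil under 4 cm of water, with rice seedlings at the 2.5-leaf stage added. Same-day treatment: emulsion diluted to a set herbicide amount onto the water. Three weeks at 25–30 °C, then graded on a six-step scale.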

[9] = tested on: Setaria viridis; assay: Test Example 4: herbicidal effect by soil treatment (symbol G); settings: application herbicide amount 320 g/ha
In short: as §1

[10] = tested on: corn; assay: Test Example 4: effect on crop by soil treatment (symbol c); settings: application herbicide amount 320 g/ha
In short: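 Diluvial soil (sterilized) in boxes; seeds placed spot-wise alongside weed species; ~1.5 cm covering soil. Greenhouse, 25–30° C.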

[11] = tested on: Amaranthus retroflexus; assay: Test Example 4: herbicidal effect by soil treatment (symbol N); settings: application herbicide amount 320 g/ha
In short: as §1

[12] = tested on: Stellaria media; assay: Test Example 4: herbicidal effect by soil treatment (symbol P); settings: application herbicide amount 320 g/ha
In short: as §1

[13] = tested on: Setaria viridis; assay: Test Example 5: herbicidal effect by foliage application, plastic box (symbol G); settings: 320 g/ha, 3 weeks after application
In short: as §3

[14] = tested on: Scirpus juncoides; assay: Test Example 1: herbicidal activity, application before weed generation in submerged conditions (symbol B); settings: application herbicide amount 320 g/ha
In short: as §4

[15] = tested on: Echinochloa crus-galli var. crus-galli; assay: Test Example 4: herbicidal effect by soil treatment (symbol H); settings: application herbicide amount 320 g/ha
In short: as §1

[16] = tested on: Apera spica-venti; assay: Test Example 4: herbicidal effect by soil treatment (symbol L); settings: application herbicide amount 320 g/ha
In short: as §1

[17] = tested on: rapeseed; assay: Test Example 4: effect on crop by soil treatment (symbol g); settings: application herbicide amount 320 g/ha
In short: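 Plants are raised in a greenhouse (25° C. to 30° C.) from spot-sown seed, which sits under about 1.5 cm of sterilized diluvial soil in a box shared with weed species.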

| SMILES | K (Lolium multiflorum Lam.) herbicidal effect grade [1] | g: rapeseed, effect on crop grade [2] | J: Alopecurus myosuroides, herbicidal effect grade [3] | P: Stellaria media, herbicidal effect grade [4] | herbicidal effect on D (Leptochloa chinensis), grade 0-5 [5] | e: wheat, effect on crop grade [6] | H: Echinochloa crus-galli var. crus-galli, herbicidal effect grade [7] | Herbicidal effect grade, C: Monochoria vaginalis [8] | G (Setaria viridis) herbicidal effect grade [9] | c (corn) effect on crop grade [10] | N (Amaranthus retroflexus) herbicidal effect grade [11] | P (Stellaria media) herbicidal effect grade [12] | G: Setaria viridis, herbicidal effect grade [13] | Herbicidal effect grade, B: Scirpus juncoides [14] | H (Echinochloa crus-galli var. crus-galli) herbicidal effect grade [15] | L (Apera spica-venti) herbicidal effect grade [16] | g (rapeseed) effect on crop grade [17] |
| --- | --- | --- | --- | --- | --- | --- | --- | --- | --- | --- | --- | --- | --- | --- | --- | --- | --- |
| CC(CC1CC(O)=C(c2c(C)cc(C)cc2C)C1=O)=NOC(C)C (centres unmarked) [1-052] | 5 (Herbicidal ratio of 90% or more (almost completely withered)) | 4 (Herbicidal ratio of 70% or higher and lower than 90%) | 5 (Herbicidal ratio of 90% or more (almost completely withered)) | 0 (Herbicidal ratio of 5% or lower (almost no effect)) | 5 (Herbicidal ratio of 90% or more (almost completely withered)) | 5 (Herbicidal ratio of 90% or more (almost completely withered)) | 5 (Herbicidal ratio of 90% or more (almost completely withered)) | 0 (Herbicidal ratio of 5% or lower (almost no effect)) | 5 (Herbicidal ratio of 90% or more (almost completely withered)) | 3 (Herbicidal ratio of 40% or higher and lower than 70%) | 3 (Herbicidal ratio of 40% or higher and lower than 70%) | 0 (Herbicidal ratio of 5% or lower (almost no effect)) | 5 (Herbicidal ratio of 90% or more (almost completely withered)) | 5 (Herbicidal ratio of 90% or more (almost completely withered)) | 5 (Herbicidal ratio of 90% or more (almost completely withered)) | 5 (Herbicidal ratio of 90% or more (almost completely withered)) | 3 (Herbicidal ratio of 40% or higher and lower than 70%) |
| CC(CC1CC(O)=C(c2c(C)cc(C)cc2C)C1=O)=NOC(C)(C)C (centres unmarked) [1-053] | 5 (Herbicidal ratio of 90% or more (almost completely withered)) | 4 (Herbicidal ratio of 70% or higher and lower than 90%) | 4 (Herbicidal ratio of 70% or higher and lower than 90%) | 0 (Herbicidal ratio of 5% or lower (almost no effect)) | 5 (Herbicidal ratio of 90% or more (almost completely withered)) | 0 (Herbicidal ratio of 5% or lower (almost no effect)) | 4 (Herbicidal ratio of 70% or higher and lower than 90%) | 0 (Herbicidal ratio of 5% or lower (almost no effect)) | 4 (Herbicidal ratio of 70% or higher and lower than 90%) | 1 (Herbicidal ratio of 5% or higher and lower than 20%) | 0 (Herbicidal ratio of 5% or lower (almost no effect)) | 0 (Herbicidal ratio of 5% or lower (almost no effect)) | 3 (Herbicidal ratio of 40% or higher and lower than 70%) | 3 (Herbicidal ratio of 40% or higher and lower than 70%) | 5 (Herbicidal ratio of 90% or more (almost completely withered)) | 3 (Herbicidal ratio of 40% or higher and lower than 70%) | 3 (Herbicidal ratio of 40% or higher and lower than 70%) |
| CC(CC1CC(O)=C(c2c(C)cc(C)cc2C)C1=O)=NOCC[Si](C)(C)C (centres unmarked) [1-055] | 5 (Herbicidal ratio of 90% or more (almost completely withered)) | 3 (Herbicidal ratio of 40% or higher and lower than 70%) | 4 (Herbicidal ratio of 70% or higher and lower than 90%) | 0 (Herbicidal ratio of 5% or lower (almost no effect)) | 5 (Herbicidal ratio of 90% or more (almost completely withered)) | 0 (Herbicidal ratio of 5% or lower (almost no effect)) | 4 (Herbicidal ratio of 70% or higher and lower than 90%) | 0 (Herbicidal ratio of 5% or lower (almost no effect)) | 4 (Herbicidal ratio of 70% or higher and lower than 90%) | 0 (Herbicidal ratio of 5% or lower (almost no effect)) | 0 (Herbicidal ratio of 5% or lower (almost no effect)) | 0 (Herbicidal ratio of 5% or lower (almost no effect)) | 3 (Herbicidal ratio of 40% or higher and lower than 70%) | 3 (Herbicidal ratio of 40% or higher and lower than 70%) | 4 (Herbicidal ratio of 70% or higher and lower than 90%) | 2 (Herbicidal ratio of 20% or higher and lower than 40%) | 0 (Herbicidal ratio of 5% or lower (almost no effect)) |
| CC(CC1CC(O)=C(c2c(C)cc(C)cc2C)C1=O)=NOCC=CCl (centres unmarked) [1-056] | 5 (Herbicidal ratio of 90% or more (almost completely withered)) | 4 (Herbicidal ratio of 70% or higher and lower than 90%) | 5 (Herbicidal ratio of 90% or more (almost completely withered)) | 0 (Herbicidal ratio of 5% or lower (almost no effect)) | 5 (Herbicidal ratio of 90% or more (almost completely withered)) | 5 (Herbicidal ratio of 90% or more (almost completely withered)) | 5 (Herbicidal ratio of 90% or more (almost completely withered)) | 4 (Herbicidal ratio of 70% or higher and lower than 90%) | 5 (Herbicidal ratio of 90% or more (almost completely withered)) | 3 (Herbicidal ratio of 40% or higher and lower than 70%) | 3 (Herbicidal ratio of 40% or higher and lower than 70%) | 0 (Herbicidal ratio of 5% or lower (almost no effect)) | 5 (Herbicidal ratio of 90% or more (almost completely withered)) | 5 (Herbicidal ratio of 90% or more (almost completely withered)) | 5 (Herbicidal ratio of 90% or more (almost completely withered)) | 5 (Herbicidal ratio of 90% or more (almost completely withered)) | 4 (Herbicidal ratio of 70% or higher and lower than 90%) |
